Measured values: US8501802B2, “Co-crystals of duloxetine and COX-INHIBITORs for the treatment of pain” (Laboratorios del Dr. Esteve, S.A., priority 2008, dated 2013)
Structures can show the parent of a compound that is named as a salt.

Conditions: for Δ % weight 24 h / Δ % weight 48 h / Δ % weight 6 days: 64±5% relative humidity, 22±2° C.; for KF (t = 0): Karl Fischer value at the beginning of the study; for Hygroscopicity class according to the scale: PharmaEuropa scale of % incorporation of water
Protocol: The objective was to measure the hygroscopicity of the salts of the present invention, and comparing it with the one of the known salt of each counter part of the salts. The increasing of the weight will be measured in order to evaluate the incorporation of water in the samples, together with the Karl Fischer factor.
The scale is the following:
Preparation of the Humidity chamber: A supersaturated solution of sodium nitrite (45 g/50 ml) is prepared and introduced in a humidification chamber (samplaterecord). The chamber is maintained at a temperature of 22±2° C. during 24 hours before use, and humidity is controlled each day.
The variation of the weight is controlled and the following percentage is calculated: Δ%weight=(Pn−P1)/P1×100 wherein: P1 is the initial weight, Pn is the weight measured for the sample.

Row | SMILES | Δ % weight 24 h [%] | Δ % weight 48 h [%] | Δ % weight 6 days [%] | KF (t = 0) | Hygroscopicity class according to the scale
1 | CNCC[C@H](Oc1cccc2ccccc12)c1cccs1 [Duloxetine HCl] | 0.19 | 0.26 | 0.18 | 0.33 | not hygroscopic
2 | COc1ccc2cc([C@H](C)C(=O)[O-])ccc2c1.[Na+] [sodium naproxen] | 14.39 | 14.39 | 14.3 | 1.04 | hygroscopic
3 | CNCC[C@H](Oc1cccc2ccccc12)c1cccs1.CNCC[C@H](Oc1cccc2ccccc12)c1cccs1.COc1ccc2cc([C@H](C)C(=O)O)ccc2c1.COc1ccc2cc([C@H](C)C(=O)O)ccc2c1.COc1ccc2cc([C@H](C)C(=O)O)ccc2c1 | 0 | 0.09 | 0.13 | 0.36 | not hygroscopic
